Assay results as given in patent publication US20090170788A1, “NOVEL USE OF 1, 2, 3, 4, 6-PENTA-O-GALLOYL-BETA-D-GLUCOSE” (priority 2006, published 2009).

Assays:
MMP-1 [1] = assay: MMP-1 expression (ELISA) in UV-irradiated human normal dermal fibroblasts; assay type: cell-based
Protocol: (§1) Human normal dermal fibroblasts, which were isolated and cultured from the skin dermal layer cut from infant phimosis, were seeded into a 6-well plate at a density of 1×10^5 cells/well, and then cultured in 10% fetal bovine serum-containing DMEM (Dulbecco's modified Eagle's medium) for 24 hours. After the culture, the cells were washed three times with phosphate buffered saline (PBS) and then irradiated with UV A and […] in the following manner in order to induce skin aging. UV A was irradiated using a UV A lamp (Sankyo Denki FL8BL lamp, Sankyo Denki Co., Japan) to a total energy dose of 50 mJ/cm^2 at a rate of 27 mW/cm^2/sec, and UV B was irradiated using a UV B lamp (Sankyo Denki G9T5E lamp, Sankyo Denki Co., Japan) to a total energy dose of 170 mJ/cm^2 at a rate of 1.15 mW/cm^2/sec. […] In order to examine if the skin was aged after the culture, the expression levels of skin intercellular matrix component type I procollagen and its degradation enzyme MMP-1 were measured using a type I procollagen ELISA kit (Procollagen Type I C-Peptide EIA kit, TaKaRa, Japan) and a MMP-1 ELISA kit (MMP-1 human, ELISA system, Biotrak Assay, Amersham Biosciences, USA) according to manufacturer's protocols. […]

[2] = test system: albino SKH-1 hairless mice; assay: Wrinkle formation caused by UV light in hairless mouse model (skin photographs, skin replica); assay type: in vivo; details: UV B 10 weeks, topical 10 mg/200 μl/4 cm^2 starting from 4 weeks after UV irradiation
Description: Whether 1,2,3,4,6-penta-O-galloyl-beta-D-glucose has the effect of inhibiting wrinkle formation caused by UV light was examined. First, 7-week-old female hairless mice (albino SKH-1 hairless mice, Hanlim Experimental Animal Co., Suwon, Korea) were divided into the following three groups, each consisting of 10 animals.
(§2) The mice of each of the groups were put in an UV box equipped with an UV B lamp, and were irradiated with UV light at a dose of 100 mJ/cm^2 corresponding to minimal erythemal dose (MED). UV light was irradiated one time a day, three times a week for 4 weeks while increasing the dose of UV light from 100 mJ/cm^2 at the first week to 200 mJ/cm^2 at the second week, 300 mJ/cm^2 at the third week and 400 mJ/cm^2 at the fourth week so as to adapt the mice to UV light. Following the fourth week, the mice were irradiated with UV light at a dose of 400 mJ/cm^2 for 6 weeks, and thus the hairless mice were exposed to UV light for a total of 10 weeks, thereby inducing skin photoaging. (Kilgman L H, Clin Dermatol 14:183-195, 1996). In the case of the test group, starting from 4 weeks after UV irradiation, a composition containing 1,2,3,4,6-penta-O-galloyl-beta-D-glucose was dissolved in a propylene glycol solution containing 30% ethanol (7:3 [v/v] propylene glycol:ethanol) and applied to the skin of the mice in an amount of 10 mg/200 μl/4 cm^2. […]

[3] = test system: albino SKH-1 hairless mice; assay: Epidermal thickening induced by UV light in hairless mouse model (H&E staining); assay type: in vivo; details: UV B 10 weeks, topical 10 mg/200 μl/4 cm^2
Description: as §2, with “cm^2. In the case of the group treated with UV light alone, a composition containing no 1,2,3,4,6-penta-O-galloyl-beta-D-glucose was applied to the mice in an amount of 200 μl/4 cm^2 in the same manner as the test group.” for “cm^2.”

MMP-1 [4] = assay: MMP-1 expression in skin of UV-irradiated hairless mice (immunohistochemistry); assay type: in vivo, mouse; details: UV B 10 weeks, topical 10 mg/200 μl/4 cm^2
Description: as §2, with “cm^2. In the case of the group treated with UV light alone, a composition containing no 1,2,3,4,6-penta-O-galloyl-beta-D-glucose was applied to the mice in an amount of 200 μl/4 cm^2 in the same manner as the test group.” for “cm^2.”

type I procollagen [5] = assay: Type I procollagen expression (ELISA) in UV-irradiated human normal dermal fibroblasts; assay type: cell-based
Protocol: as §1

COX-2 = COX-2 protein expression (Western blot) in UV B-irradiated human keratinocytes (HaCaT); assay type: cell-based; details: HaCaT cells, UV B 10 mJ/cm^2, 1, 10, 30, 50 μM, 12 hours
Protocol: Human keratinocytes (HaCaT cell) provided by professor N. Fusenig (German Cancer Research, Germany) were seeded into a 100 mm culture dish to 1.3×10^6 cells, and then cultured in a DMEM medium containing 10% fetal bovine serum for 24 hours. After the culture, the cells were washed three times with phosphate buffered saline, and then irradiated with UV B in the following manner in order to induce skin aging. UV B was irradiated using an UV B lamp to a total energy dose of 10 mJ/cm^2 at a rate of 0.6 mW/cm^2/sec. Just after the UV irradiation, the cells were washed again with phosphate buffered saline, and 1,2,3,4,6-penta-O-galloyl-beta-D-glucose was added to a DMEM medium containing no fetal bovine serum at concentrations of 1, 10, 30, 50 μM. Then, the cells were further cultured in the medium for 12 hours. Test groups were divided as follows: After the 12-hr culture, the cells were washed with cold phosphate buffered saline, and then treated with lysis buffer to separate a cell protein. Then, the cell protein was subjected to Western blot analysis using a COX-2 antibody (Santa Cruz Biotch., USA) and a horseradish peroxidase-conjugated secondary antibody (ZYMED Laboratories, USA). As a loading control group, […] was used.

[6] = test system: albino SKH-1 hairless mice; assay: Collagen formation/degradation after UV light in hairless mouse model (masson trichome staining); assay type: in vivo; details: UV B 10 weeks, topical 10 mg/200 μl/4 cm^2
Description: as §2, with “cm^2. In the case of the group treated with UV light alone, a composition containing no 1,2,3,4,6-penta-O-galloyl-beta-D-glucose was applied to the mice in an amount of 200 μl/4 cm^2 in the same manner as the test group.” for “cm^2.”

type I procollagen [7] = assay: Type I procollagen expression in skin of UV-irradiated hairless mice (immunohistochemistry); assay type: in vivo, mouse; details: UV B 10 weeks, topical 10 mg/200 μl/4 cm^2
Description: as §2, with “cm^2. In the case of the group treated with UV light alone, a composition containing no 1,2,3,4,6-penta-O-galloyl-beta-D-glucose was applied to the mice in an amount of 200 μl/4 cm^2 in the same manner as the test group.” for “cm^2.”

[8] = human normal dermal fibroblasts, UV A 50 mJ/cm^2 or UV B 170 mJ/cm^2, 1 and 10 μg/ml, 24 hours, concentration-dependent, vs UV light alone
[9] = in vitro, UV-irradiated human skin fibroblasts, comparison with EGCG control group

SMILES: O=C(OC[C@H]1O[C@@H](OC(=O)c2cc(O)c(O)c(O)c2)[C@H](OC(=O)c2cc(O)c(O)c(O)c2)[C@@H](OC(=O)c2cc(O)c(O)c(O)c2)[C@@H]1OC(=O)c1cc(O)c(O)c(O)c1)c1cc(O)c(O)c(O)c1 [1,2,3,4,6-penta-O-galloyl-beta-D-glucose]
- expression of MMP-1 (MMP-1 [1]; [8]): a decrease in the expression of MMP-1
- inhibitory effect on MMP-1 compared to EGCG (MMP-1 [1]; [9]): much more superior to the MMP-1 inhibitory effect of EGCG
- frequency of wrinkle formation [2]: reduced the frequency of wrinkle formation
- thickening of the skin epidermal layer [3]: the thickening of the skin epidermal layer was significantly decreased
- expression of MMP-1 in skin tissue (MMP-1 [4]): this increase in expression was inhibited
- expression of type I procollagen (type I procollagen [5]; [8]): an increase in the expression of type I procollagen
- expression of type I procollagen compared to EGCG (type I procollagen [5]; [9]): marked increase in the expression of type I procollagen compared to the case of treatment with EGCG
- expression of COX-2 (COX-2): reduced the expression of COX-2 in a concentration-dependent manner
- amount of collagen [6]: the amount of collagen was increased compared to the group treated with UV light alone
- amount of damaged collagen [6]: the amount of damaged collagen was decreased
- expression of type I procollagen in skin tissue (type I procollagen [7]): the expression of type I procollagen was increased compared to the group treated with UV light alone
